Laboratory results taken from patent publication US12263248B2, “Compounds and compositions for intracellular delivery of therapeutic agents” (ModernaTX, Inc., priority 2018, dated 2025).
Marks after values point to notes of the source that are not given here.

Assays:
luciferase (Luc) mRNA [1] = assay: Luc expression in liver, lung, spleen and femur 6 hours after intravenous administration; format: in vivo; conditions: mice, 0.5 mpk; for Total Flux Liver / Total Flux Lung / Total Flux Spleen / Total Flux Femur: intravenous; for Flux in the spleen: i.v., in words
Method in brief: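 LNP-formulated mRNA given IV to mice (n=3) at 0.5 mpk; at 6 h, bioluminescence imaged ex vivo 15 min after IP D-luciferin (15 mg/mL, 200 μL), organs imaged within 25 min. Values are total flux by region of interest.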

luciferase mRNA = assay: Luciferase expression after subcutaneous administration to mice; format: in vivo, female CD-1 mice; conditions: for Novel lipid/MC3 expression ratio, s.c. Luc 0.5 mpk (AUC) / Novel lipid/MC3 expression ratio, 6 hr. time point, s.c. Luc 0.05 mpk / Novel lipid/MC3 expression ratio, 6 hr. time point, s.c. Luc 0.5 mpk: relative to MC3; for Novel lipid/MC3 expression ratio, s.c. Luc 0.5 mpk (AUC) / Lipid/MC3 AUC ratio / AUC (luciferase expression) / Novel lipid/MC3 expression ratio, 6 hr. time point, s.c. Luc 0.5 mpk: 0.5 mpk; for Lipid/MC3 AUC ratio: luciferase; for AUC (luciferase expression): whole body BLI; for Novel lipid/MC3 ratio, s.c. Luc 6 hr.: relative to MC3, Table 3G
Method in brief: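 Female CD-1 mice given luciferase mRNA in lipid nanoparticle formulations subcutaneously at 0.5 mpk. Expression read by whole-body bioluminescence imaging at 3, 6 and 24 h, with ex vivo liver, spleen and injection-site luminescence at 24 h.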

luciferase (Luc) mRNA [2] = assay: Luc expression, whole body bioluminescence after intravenous administration to mice; format: in vivo; conditions: for Novel lipid/MC3 ratio, 6 hr. timepoint, i.v. / Novel lipid/MC3 expression ratio, 6 hr. time point, i.v.: luciferase; for Novel lipid/MC3 ratio, 6 hr. timepoint, i.v.: relative to MC3, Table 3G; for Novel lipid/MC3 expression ratio, 6 hr. time point, i.v.: relative to MC3 formulation; for Total Flux 3 hours / Total Flux 6 hours / Total Flux 24 hours: Luc mRNA; for Fold increase in total body Luc Flux relative to MC3 at 6 h: Table 3A, i.v. administration
Method in brief: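 Bioluminescence, read as region-of-interest total flux at 3, 6 and 24 h, followed a single 0.5 mg/kg intravenous dose of Luc mRNA-loaded nanoparticles in mice (n=6). Luciferin substrate (200 μL, 15 mg/mL in PBS) was injected intraperitoneally into CD-1 mice 15 minutes ahead of each imaging point.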

hEPO mRNA = assay: hEPO expression after intramuscular administration to mice; format: in vivo; conditions: for Fold increase in hEPO concentration relative to MC3: mice, 0.01 mpk, 6 hr time point
Method: The expression of hEPO and cytokine induction in mice intravenously administered a nanoparticle composition at a dose of 0.5 mpk were measured at 3, 6, and 24 hours. […] The expression of hEPO in mice intramuscularly administered a nanoparticle composition from Table 1B at a dose of 0.01 mpk were measured at 3, 6, and 24 hours.
Blood collection and analysis for hEPO. Blood was collected from mice or rats via the tail vein and hEPO concentrations were determined using a hEPO ELISA assay.

[3] = Particle size and polydispersity index of nanoparticle compositions (Zetasizer Nano ZS); format: physicochemical
Method in brief: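 Zetasizer Nano ZS; samples in 1×PBS; read-out: particle size plus polydispersity index.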

[4] = Table 1A, lipid:DSPC:cholesterol:PEG-DMG 50:10:38.5:1.5 mol %
[5] = Table 1B, formulated with hEPO mRNA
[6] = Table 1C, compositions for subcutaneous administration
[7] = Table 1E, compositions for subcutaneous administration

SMILES	PDI ([3]; Table 1A)	Size (nm) [3, 4] [nm]	PDI [3, 6]	Size (nm) [3, 6] [nm]	PDI [3, 7]	Size (nm) [3, 7] [nm]	Total Flux Liver (luciferase (Luc) mRNA [1])	Total Flux Lung (luciferase (Luc) mRNA [1])	Total Flux Spleen (luciferase (Luc) mRNA [1])	Novel lipid/MC3 expression ratio, s.c. Luc 0.5 mpk (AUC) (luciferase mRNA)	Lipid/MC3 AUC ratio (luciferase mRNA)	AUC (luciferase expression) (luciferase mRNA)	Novel lipid/MC3 ratio, s.c. Luc 6 hr. (luciferase mRNA)	Novel lipid/MC3 ratio, 6 hr. timepoint, i.v. (luciferase (Luc) mRNA [2]; intravenous)	Novel lipid/MC3 expression ratio, 6 hr. time point, i.v. (luciferase (Luc) mRNA [2]; intravenous)	Total Flux 3 hours (luciferase (Luc) mRNA [2]; mice, i.v., 0.5 mg/kg)	Total Flux 6 hours (luciferase (Luc) mRNA [2]; mice, i.v., 0.5 mg/kg)	Total Flux 24 hours (luciferase (Luc) mRNA [2]; mice, i.v., 0.5 mg/kg)	Novel lipid/MC3 expression ratio, 6 hr. time point, s.c. Luc 0.5 mpk (luciferase mRNA)	Fold increase in total body Luc Flux relative to MC3 at 6 h (luciferase (Luc) mRNA [2])	other results
CCCCCCCCC(CC)OC(=O)CCCN(CCO)CCCCCCCC(=O)OC(CCCCCCCC)CCCCCCCC (stereo not shown) [Compound 72, Heptadecan-9-yl 8-((2-hydroxyethyl)(4-oxo-4-(undecan-3-yloxy)butyl)amino)octanoate]	0.10	76.8	0.10	77.3	–	–	7.97E+08	1.05E+07	6.40E+06	(AUC: 2.01)	2.01	3.4417E+10 (p/s) * h	2.18	1.52	1.52	1.73E+10	4.07E+10	7.12E+08	–	–	–
CCCCCCCCCN(CCCO)CCCCCCCC(=O)OC(CCCCCCCC)CCCCCCCC [Compound 7, Heptadecan-9-yl 8-((3-hydroxypropyl)(nonyl)amino)octanoate]	0.22	118.9	–	–	–	–	2.49E+09	3.95E+07	4.83E+08	–	–	–	–	–	–	4.13E+10	4.03E+10	1.68E+09	2.29	–	Flux in the spleen (luciferase (Luc) mRNA [1]): highest; Novel lipid/MC3 expression ratio, 6 hr. time point, s.c. Luc 0.05 mpk (luciferase mRNA): 2.40
CCCCCCCCCOC(=O)CCCCCCCN(CCO)CCCCCC(=O)OC(CCCCCCCC)CCCCCCCC [Compound 27, Nonyl 8-((6-(heptadecan-9-yloxy)-6-oxohexyl)(2-hydroxyethyl)amino) octanoate]	0.18	82.3	–	–	–	–	2.16E+09	6.35E+06	3.78E+06	–	–	–	–	–	–	1.64E+10	1.03E+10	1.94E+09	–	0.31	Total Flux Femur (luciferase (Luc) mRNA [1]): 2.00E+06; Novel lipid/MC3 expression ratio, 6 hr. time point, s.c. Luc 0.05 mpk (luciferase mRNA): 14.45
CCCC/C=C\CCC(CC/C=C\CCCC)OC(=O)CCCCCCCN(CCO)CCCCCC(=O)OCCCCCCCCCCC [Compound 61, (5Z,12Z)-heptadeca-5,12-dien-9-yl 8-((2-hydroxyethyl)(6-oxo-6-(undecyloxy)hexyl)amino)octanoate]	0.15	82.1	–	–	0.08	80.0	6.37E+08	3.56E+06	1.61E+07	–	–	–	–	–	2.31	6.54E+10	6.20E+10	1.78E+09	0.70	–	–
CCCCCCCCC(CCCCCCCC)OC(=O)CCCCCCCN(CCO)CCCCCC(=O)OC(CCCCCCCC)C1CC1 (stereo not shown) [Compound 128, Heptadecan-9-yl 8-((6-((1-cyclopropylnonyl)oxy)-6-oxohexyl)(2-hydroxyethyl)amino)octanoate]	0.22	104.1	–	–	0.13	73.9	5.98E+09	2.16E+07	7.09E+07	–	–	–	–	–	4.05	1.04E+11	8.99E+10	1.00E+09	0.47	4.05	total flux at 3 hours (luciferase (Luc) mRNA [2]; mice, i.v., 0.5 mg/kg, comparison in words): highest
CCCCCCCCCOC(=O)CCCCCCCN(CCCCO)CCCCCCCC(=O)OC(CCCCCCCC)CCCCCCCC [Compound 20, Heptadecan-9-yl 8-((4-hydroxybutyl)(8-(nonyloxy)-8-oxooctyl)amino) octanoate]	0.13	86.7	0.13	86.7	–	–	1.84E+09	2.66E+07	1.43E+08	(AUC: 4.02)	4.02	6.8926E+10 (p/s) * h	4.00	–	–	1.71E+10	2.48E+10	5.40E+08	–	0.80	Total Flux Femur (luciferase (Luc) mRNA [1]): 1.31E+07; Fold increase in Luc expression relative to MC3, Intravenous (0.5 mpk dose) (luciferase (Luc) mRNA [2]; intravenous, 0.5 mpk): 0.80

Further lines, with some results ahead:

PDI ([3]; Table 1A)	Size (nm) [3, 4] [nm]	PDI [3, 6]	Size (nm) [3, 6] [nm]	PDI [3, 7]	Size (nm) [3, 7] [nm]	SMILES	Total Flux Liver (luciferase (Luc) mRNA [1])	Total Flux Lung (luciferase (Luc) mRNA [1])	Total Flux Spleen (luciferase (Luc) mRNA [1])	Novel lipid/MC3 expression ratio, s.c. Luc 0.5 mpk (AUC) (luciferase mRNA)	Lipid/MC3 AUC ratio (luciferase mRNA)	AUC (luciferase expression) (luciferase mRNA)	Novel lipid/MC3 ratio, s.c. Luc 6 hr. (luciferase mRNA)	Novel lipid/MC3 ratio, 6 hr. timepoint, i.v. (luciferase (Luc) mRNA [2]; intravenous)	Novel lipid/MC3 expression ratio, 6 hr. time point, i.v. (luciferase (Luc) mRNA [2]; intravenous)	Total Flux 3 hours (luciferase (Luc) mRNA [2]; mice, i.v., 0.5 mg/kg)	Total Flux 6 hours (luciferase (Luc) mRNA [2]; mice, i.v., 0.5 mg/kg)	Total Flux 24 hours (luciferase (Luc) mRNA [2]; mice, i.v., 0.5 mg/kg)	Novel lipid/MC3 expression ratio, 6 hr. time point, s.c. Luc 0.5 mpk (luciferase mRNA)	Fold increase in total body Luc Flux relative to MC3 at 6 h (luciferase (Luc) mRNA [2])	other results
0.09	69.3	0.16	80.2	–	–	CCCCCCCCC(C)OC(=O)CCCCCN(CCO)CCCCCCCC(=O)OC(CCCCCCCC)CCCCCCCC (stereo not shown) [Compound 122, Heptadecan-9-yl 8-((6-(decan-2-yloxy)-6-oxohexyl)(2-hydroxyethyl)amino)octanoate]	2.63E+09	2.77E+07	1.56E+07	(AUC: 3.42)	3.42	5.8576E+10 (p/s) * h	4.12	3.23	3.23	3.64E+10	8.64E+10	1.95E+09	–	–	Fold increase in hEPO concentration relative to MC3 (hEPO mRNA): 10.7; Novel lipid/MC3 ratio, 6 hr. timepoint, i.m. hEPO (hEPO mRNA; relative to MC3, Table 3G): 10.7; Novel lipid/MC3 expression ratio, 6 hr. time point, i.m. hEPO (hEPO mRNA; relative to MC3 formulation): 10.7; PDI [3, 5]: 0.12; Size (nm) [3, 5]: 70.2 nm
0.13	86.8	0.14	83.9	–	–	CCCCCCCCCOC(=O)CCCCCCCN(CCCCCCCC(=O)OC(CCCCCCCC)CCCCCCCC)CCCNC(=S)NC [Compound 113, Heptadecan-9-yl 8-((3-(3-methylthioureido)propyl)(8-(nonyloxy)-8-oxooctyl)amino)octanoate]	1.11E+09	5.55E+06	5.22E+07	(AUC: 4.30)	4.30	7.3721E+10 (p/s) * h	4.53	–	–	5.16E+09	8.09E+09	1.30E+08	–	–	–
0.14	119	–	–	0.15	96.1	CCCCCCCCCOC(=O)CCCCCCCN(CCCCCCCC(=O)OC(CCCCCCCC)CCCCCCCC)CCCNC(C)=O [Compound 108, Heptadecan-9-yl 8-((3-acetamidopropyl)(8-(nonyloxy)-8-oxooctyl)amino)octanoate]	4.63E+08	9.81E+06	7.82E+08	–	–	–	–	–	–	5.04E+09	5.53E+09	1.50E+08	0.22	–	Flux in the spleen (luciferase (Luc) mRNA [1]): highest; i.v. Lipid/MC3 0.5 mpk, Luc, 6 h (luciferase (Luc) mRNA [2]; Table 3B, i.v., 0.5 mpk, 6 h): 0.4; Fold increase in hEPO concentration relative to MC3 (hEPO mRNA): 3.7; PDI [3, 5]: 0.22; Size (nm) [3, 5]: 89.6 nm
0.17	92.1	0.13	88.6	–	–	CCCCCCCCC(CC)OC(=O)CCCCCN(CCO)CCCCCCCC(=O)OC(CCCCCCCC)CCCCCCCC (stereo not shown) [Compound 75, Heptadecan-9-yl 8-((2-hydroxyethyl)(6-oxo-6-(undecan-3-yloxy)hexyl)amino)octanoate]	1.45E+09	3.92E+06	5.66E+06	(AUC: 3.05)	3.05	5.2262E+10 (p/s) * h	3.08	3.29	3.29	3.51E+10	8.80E+10	2.13E+09	–	–	–
